Assay results taken from patent US11590110B2, “Compositions and methods for reactivating latent immunodeficiency virus using a GSK-3 inhibitor” (priority 2017, dated 2023).

Tests used:
[1] = test system: latent HIV in CD4+ T cells of HIV-infected patients on suppressive anti-retroviral therapy; assay: Example 7: reversal of HIV latency in patient CD4+ T cells, extracellular viral RNA by digital droplet PCR
[2] = test system: AKT/mTOR pathway in CD4+ T cells; assay: Example 5: phosphoproteomics (mass spectrometry) and GO enrichment analysis; format: cell-based, human; details: 1 μM; 15 minutes
Description: Cells were lysed in a buffer containing 8M urea, 100 mM Tris pH 8.0, 150 mM NaCl, and protease inhibitors (Roche Complete tablet). Lysates were reduced with 4 mM TCEP for 30 minutes at room temperature and alkylated with 10 mM iodoacetamide for 30 minutes at room temperature in the dark. Samples were diluted 1:4 in 100 mM Tris pH 8.0 to reduce urea concentration to 2M and digested with trypsin (1:100 enzyme:substrate ratio) overnight at 37 degrees Celsius. Peptides were desalted with SepPak C 18 solid phase extraction (Waters) according the manufacturer's specifications and lyophilized to dryness. Phosphopeptides were purified using an immobilized metal affinity chromatography approach.
Samples were analyzed on a Thermo Scientific LTQ Orbitrap Elite MS system equipped with an Easy nLC-1000 HPLC and autosampler system that is capable of maintaining back pressures of up to 10,000 psi for high resolution chromatographic separations. The HPLC interfaces with the MS system via a nanoelectrospray source.
Samples were injected onto a C18 reverse phase capillary column (75 um inner diameter×25 cm length, packed with 1.9 um C18 particles). Peptides were then separated by an organic gradient from 5% to 30% ACN in 0.1% formic acid over 180 minutes at a flow rate of 300 nl/min. The MS continuously collected spectra in a data-dependent fashion over the entire gradient.
Raw mass spectrometry data were analyzed using the MaxQuant software package (version 1.3.0.5). Data were matched to the SwissProt human reference sequence database. MaxQuant was configured to generate and search against a reverse sequence database for false discovery rate calculations. […] For MS/MS matching, a mass tolerance of 0.5 Da was allowed and the top 6 peaks per 100 Da were analyzed. […]
The MaxQuant-analyzed data were subsequently analyzed using an in-house computational pipeline for statistical analysis of relative quantification with fixed and/or mixed effect models, implemented in the MSstats Bioconductor package (version 3.3.10). […]

CD8+ T cells = assay: Example 5: CD8 T-cell viability and cytotoxic effector functions; format: cell-based, human
Description: After drug treatment, human PBMCs were cultured in complete RPMI in the presence of CD107a-BV650 (1:50, 328637, BioLegend) or CD107a-FITC antibodies (1:50, 555800, BD Bioscience) and PMA/ionomycin (50 ng/ml and 1 uM) dor 3.5 hours, adding Brefeldin A and Monensin (eBioscience) for the last hour. Cells were subsequently stained for viability using the viability dyes eFluor 506, (eBioscience) according to the provided protocol. After surface marker staining with the following antibodies (all at 1:100 dilution): CD3-APC-H7 (560176; BD Biosciences), CD8-V450 (560347; BD Biosciences), CD45RA-APC (17-0458; eBioscience), and CCR7-PE-Cy7 (557648; BD Biosciences), cells were permeabilized and fixed using the Foxp3/Transcription Factor Fixation/Permeabilization Concentrate and Diluent kit (eBioscience). Intracellular staining was performed with IFN-γ-PerCP-Cy5.5 antibody (1:100, 560704, BD Bioscience) in FOXP3 perm/wash buffer for 1 h at 4° C. After washing and fixation of the cells in 1% paraformaldehyde/PBS, cells were analyzed by flow cytometry. Final data stems from having gated on CD8hi- and CD8lo-expressing T cells.

[3] = test system: patient-derived CD4+ T cells; assay: Example 2: viability of patient-derived CD4+ T cells (Zombie Violet, flow cytometry); format: cell-based, human; details: 48 h incubation
Description: Following treatment with Tideglusib, the CD4^+ T cells were spun down and stained with the cell-death marker Zombie Violet (BioLegend). Briefly, cells were harvested 48 hours after LRA treatment, incubated with the Zombie dye for 15 minutes at room temperature, than washed and fixed with 1% PFA for 30 minutes; then washed again and analyzed via flow cytometer. Percentage of live (Zombie negative (−)) T Cells (CD3+) was normalized to the DMSO-treated control (DMSO or “untreated”=1).

CD4+ T cells = assay: Example 5: CD4+ T cell viability, Cell Titer Blue assay; format: cell-based, human; details: 48 hours; SB-216763 and tideglusib 10/100/1000 nM; bryostatin-1 10 nM
Description: 25 μl from each well/treatment were incubated with Cell Titer Blue reagent (Promega) for 3 to 4 hours at 37° C. The assay is based on the ability of living cells to convert a redox dye (resazurin) into a fluorescent end product (resorufin). Colorimetric analysis of treated cells was done with a Perkin Elmer EnSpire 2300 Multimode plate reader set to detect fluorescence (Ex:579 nm/Em:584 nm).

[4] = pre-treatment 1 μM 48 hours, then PMA/ionomycin

O=c1sn(-c2cccc3ccccc23)c(=O)n1Cc1ccccc1 [Tideglusib, 4-benzyl-2-(naphthalen-1-yl)-1,2,4-thiadiazolidine-3,5-dione] was tested, and the “latency reversing activity, in words” value ([1]; at equivalent doses) was “comparable activity”, the “induction of latent virus production (virus-associated RNA over DMSO-treated control)” value ([1]; highest concentration) was about 40 fold and the “subjects that did not respond” value ([1]; highest dose) was 1 of 8. The “GO enrichment analysis of treated vs untreated phosphoproteomics results” value [2] was “activation of TCR signaling (data not shown), together with overall spliceosome complex activity, transcription activation, mRNA processing and EGFR signaling”, the “phosphoproteomics: GSK-3β and TSC2” value [2] was “confirmed inhibition of GSK-3β and TSC2” and the “phosphoproteomics: Rictor” value [2] was “revealed phosphorylation of Rictor on T1295”. The “viability of CD8+ T cells” value (CD8+ T cells; 48 hours) was “did not reduce viability”, the “IFN-γ production in CD8+ T cells” value (CD8+ T cells; [4]) was “increase in IFN-γ production” and the “surface expression of CD107a in CD8+ T cells” value (CD8+ T cells; [4]) was “increased surface expression of CD107a”. For the same molecule, the “percentage of viable CD4+ T cells vs untreated control” value [3] was “Substantially all of the cells remained viable” and the “CD4+ T-cell viability” value (CD4+ T cells) was “does not reduce viability”.
